Assays:
[1] = human, in vivo; cited from earlier work
[2] = target: T1, P-4501A2 (Homo sapiens, UniProt P05177); assay: Inhibition of P-450 mediated caffeine metabolism to paraxanthine in human liver microsomes; details: for inhibition of P-450-mediated caffeine metabolism (in words): human liver microsomes, summary of Table 1; for activity at 0 h, 100 µM / activity at 5 min, 100 µM / activity at 20 min, 100 µM: human
T1 sequence (P05177 1-516): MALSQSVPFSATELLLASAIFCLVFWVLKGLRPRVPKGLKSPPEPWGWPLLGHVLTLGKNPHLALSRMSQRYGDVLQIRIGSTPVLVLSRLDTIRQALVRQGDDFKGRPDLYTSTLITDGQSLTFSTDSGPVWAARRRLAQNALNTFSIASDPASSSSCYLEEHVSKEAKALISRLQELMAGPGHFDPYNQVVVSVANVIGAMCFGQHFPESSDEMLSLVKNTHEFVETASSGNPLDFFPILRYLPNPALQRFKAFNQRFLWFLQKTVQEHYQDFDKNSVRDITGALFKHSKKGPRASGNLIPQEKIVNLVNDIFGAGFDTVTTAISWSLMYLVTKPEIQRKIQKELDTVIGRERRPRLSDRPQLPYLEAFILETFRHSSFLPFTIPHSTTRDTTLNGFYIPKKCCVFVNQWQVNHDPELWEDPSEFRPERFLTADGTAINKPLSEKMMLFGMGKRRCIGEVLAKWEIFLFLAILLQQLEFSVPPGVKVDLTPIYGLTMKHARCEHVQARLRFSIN
Description: The model system directly measures inhibition of P-4501A2-mediated metabolism in the physiological environment of human liver microsomes. Measurement of drug metabolism in a microsome system is directly predictive of liver metabolism in vivo. Thus, microsome data can be used to estimate the in vivo circulating half-life of compounds that are primarily metabolized in the liver.
Microsomes were prepared by standard techniques from four human livers. […] Three sets of enantiomers, CT2408 R&S, CT2410 R&S, and CT2412 R&S, were evaluated for inhibition of caffeine metabolism to paraxanthine by P-450.
Briefly, the inventive compounds were preincubated in microsomes with NADPH at concentrations of 100 μM for 0, 5, and 20 minutes. Samples containing only buffer, LSF, or furafylline were used as controls.
At the end of the preincubation period, the samples were diluted in a solution of NADPH and caffeine. The samples then were incubated for twenty minutes. Hydroxyethyl theophylline was added as an internal standard, and the samples were analyzed for paraxanthine via HPLC. Decreased paraxanthine formation is indicative of inhibition of P-450-mediated caffeine metabolism.
Incubation conditions and analysis of paraxanthine
To 200 μL microsomal suspension (HL-124; 20 mg/mL protein, P-450 specific activity 0.24 nmol/mg protein) and 100 μL 8.0 mM NADPH (Sigma, tetrasodium salt) in 100 mM phosphate buffer pH 7.4 preincubated for 2 minutes at 37° were added 100 μL of test compound solution (400 μM) in phosphate buffer ([…], pH 7.4). The solution then was incubated at 37° with agitation for 0, 5, and 20 minutes at which times 100 μL of the solution was transferred to another tube containing 200 μL 12.5 mM caffeine and 200 μL 5.0 mM NADPH which had been warmed at 37° for 2 minutes. The suspensions then were incubated for 20 minutes, 200 μL acetonitrile added, and the tubes placed on ice.
After all incubations were finished, 50 μL β-hydroxyethyl theophylline (50 μg/mL, HET) was added as an internal standard. Paraxanthine standards were prepared in 0.5 mL phosphate buffer containing 2.0 mg boiled microsomal protein ranging in concentration from 0.433 to 13.9 nmol/sample.
The suspensions then were extracted for 5 minutes with 7.0 mL methylene chloride (Fisher Optima grade), centrifuged at 3,000 g and the aqueous layer aspirated to waste. An aliquot of the organic (5.5 mL) was then transferred to another tube, evaporated to dryness under nitrogen at 30°, and reconstituted in 20% methanol/water.
Thirty microliters of reconstituted sample were then applied to an Hewlett Packard 1050 HPLC system equipped with a Rainin Microsorb™ 4.6×100 mm column with 3 μm C-18 packing. Mobile phase was maintained at 1.0 mL/min and changed from 2:13:85 to 2:20:78 acetonitrile:methanol:25 mM phosphate buffer, pH 5 over 10 minutes, the column was then washed by increasing the acetonitrile to 20% prior to re-equilibration for the next injection. Column eluent was monitored at 285 nm and paraxanthine, HET, and caffeine respectively eluted at 5.3, 6.6, and 9.8 minutes.

[3] = tested on: LSF metabolism; assay: Co-administration of furafylline with LSF: circulating half-life of LSF; assay type: in vivo; details: co-administered with LSF
[4] = tested on: P-450IA2; details: liver; Sesardic et al.; cited from earlier work
[5] = tested on: caffeine metabolism; details: cited from earlier work
[6] = tested on: P-450IA2; details: Lillibridge et al.; cited from earlier work

activity at 0 h, 100 µM ([2]; liver microsomes) [%]	activity at 5 min, 100 µM ([2]; liver microsomes) [%]	activity at 20 min, 100 µM ([2]; liver microsomes) [%]	Compound	further results
92.8	87.8	88.3	Cc1nc2c(c(=O)n(CCCC[C@@H](C)O)c(=O)n2C)n1C [CT2410R, 1-(5-Hydroxyhexyl)-3,7,8-trimethylxanthine]	–
101	82.8	56.3	Cc1nc2c([nH]1)c(=O)n(CCCC[C@@H](C)O)c(=O)n2Cc1ccco1 [CT2412R, (R)-3-(2-Furylmethyl)-1-(5-hydroxyhexyl)-8-methylxanthine]	–
97.2	71	41.8	Cc1nc2c([nH]1)c(=O)n(CCCC[C@H](C)O)c(=O)n2C [CT2408S, (S)-1-(5-Hydroxyhexyl)-3,8-dimethylxanthine]	–
95.2	73.9	46.6	Cc1nc2c([nH]1)c(=O)n(CCCC[C@@H](C)O)c(=O)n2C [CT2408R, (R)-1-(5-Hydroxyhexyl)-3,8-dimethylxanthine]	–
98.7	75.6	51.7	Cc1nc2c([nH]1)c(=O)n(CCCC[C@H](C)O)c(=O)n2Cc1ccco1 [CT2412S, (S)-3-(2-Furylmethyl)-1-(5-hydroxyhexyl)-8-methylxanthine]	–

Further lines, the compound ahead of its results:

Compound	activity at 0 h, 100 µM ([2]; liver microsomes) [%]	activity at 5 min, 100 µM ([2]; liver microsomes) [%]	activity at 20 min, 100 µM ([2]; liver microsomes) [%]	further results
CC(C(=O)O)c1ccc2oc(-c3ccc(Cl)cc3)nc2c1 (stereo not drawn) [benoxaprofen]	–	–	–	toxic / side effects [1]: lethal side effects
Cc1nc2c([nH]1)c(=O)n(CCCCC(C)O)c(=O)n2Cc1ccco1 (stereo not drawn) [CT2412 R&S, 3-(2-furylmethyl)-1-(5-hydroxyhexyl)-8-methylxanthine]	–	–	–	inhibition of P-450-mediated caffeine metabolism (in words) [2]: showed similar inhibition
Cc1nc2c(c(=O)n(CCCC[C@H](C)O)c(=O)n2C)n1C [CT2410S, 1-(5-Hydroxyhexyl)-3,7,8-trimethylxanthine]	101	91	83.5	–
O=C1CC[C@H](N2C(=O)c3ccccc3C2=O)C(=O)N1 [thalidomide S-isomer]	–	–	–	toxic / side effects [1]: teratogen, causing the birth defects in babies born to mothers using this drug
Cc1nc2c([nH]1)c(=O)n(C)c(=O)n2Cc1ccco1 [FRF, 1,8-dimethyl-3-(2'furfuryl)-methylxanthine]	–	–	–	circulating half-life of LSF on co-administration [3]: increase the circulating half-life of the methylxanthine compound LSF; inhibition of P-450IA2 / N3 demethylation of caffeine [4]: inhibiting the P-450 isozyme, P-450IA2, which catalyzes N3 demethylation of caffeine in the liver; circulating half-life of caffeine ([5]; by inhibiting N3 demethylation): increases the circulating half-life of caffeine; serum caffeine levels in patients treated ([5]; clinical trials, Tarrus et al.): elevated serum caffeine levels; activity at 0 h, 100 µM ([2]; microsomes): 36.8%; activity at 5 min, 100 µM ([2]; microsomes): 13.9%; activity at 20 min, 100 µM ([2]; microsomes): 10.1%
CC[C@H](CO)NCCN[C@H](CC)CO [ethambutol R,R-enantiomer]	–	–	–	toxic / side effects [1]: can cause blindness
Cn1c(=O)c2c(ncn2C)n(C)c1=O [caffeine, 1,3,7-trimethylxanthine]	–	–	–	site of metabolism [6]: P-450IA2 mediates demethylation of caffeine at the N3 position of the xanthine ring
O=C1CC[C@@H](N2C(=O)c3ccccc3C2=O)C(=O)N1 [thalidomide R-isomer]	–	–	–	sedative activity [1]: desired sedative activity resided in the R-isomer
C[C@@H](O)CCCCn1c(=O)c2c(ncn2C)n(C)c1=O [LSF, (R)-1-(5-Hydroxyhexyl)-3,7-dimethylxanthine, reference compound]	101	91	85.8	site of metabolism [6]: primary metabolites of LSF and PTX result from modification of the N1 substituent, not the N3 substituent; inhibition of P-450-mediated caffeine metabolism (in words) [2]: Neither CT2410 (1-(5-Hydroxyhexyl)-3,7,8-trimethylxanthine) nor LSF ((R)-1-(5-Hydroxyhexyl)-3,7-dimethylxanthine) had any inhibitory effect
Cc1nc2c([nH]1)c(=O)n(CCCCC(C)O)c(=O)n2C (stereo not drawn) [CT2408 R&S, 1-(5-Hydroxyhexyl)-3,8-dimethylxanthine]	–	–	–	inhibition of P-450-mediated caffeine metabolism (in words) [2]: showed similar inhibition
Cc1nc2c(c(=O)n(CCCCC(C)O)c(=O)n2C)n1C (stereo not drawn) [CT2410, 1-(5-Hydroxyhexyl)-3,7,8-trimethylxanthine]	–	–	–	inhibition of P-450-mediated caffeine metabolism (in words) [2]: Neither CT2410 (1-(5-Hydroxyhexyl)-3,7,8-trimethylxanthine) nor LSF ((R)-1-(5-Hydroxyhexyl)-3,7-dimethylxanthine) had any inhibitory effect
CC(=O)CCCCn1c(=O)c2c(ncn2C)n(C)c1=O [PTX]	–	–	–	site of metabolism [6]: primary metabolites of LSF and PTX result from modification of the N1 substituent, not the N3 substituent

Source: patent publication US6075029A, “Xanthine modulators of metabolism of cellular P-450” (Cell Therapeutics, Inc., priority 1998, dated 2000)
